Structures are written as SMILES.

In one experiment the test system is Hemp sesbania. The experiment can be described thus: Hemp sesbania control after glyphosate spray, by nozzle type and adjuvant. To be noted: 28 days after treatment with glyphosate (0.375 lb ae/ac). It counts as in vivo. An excerpt:
(§1) The numbers in this table are percent control or percent kill of the weed.

The next experiment has as its system Velvetleaf. Briefly: Velvetleaf control after glyphosate spray, by nozzle type and adjuvant. The class given is in vivo. As to conditions: 28 days after treatment with glyphosate (0.375 lb ae/ac).
Source text: as §1

Regarding `O=C(O)CNCP(=O)(O)O` [glyphosate], the “Hemp sesbania control, InJet 110015 Nozzle” value in the experiment with Hemp sesbania (Table 2, InJet 110015 nozzle) is listed as 20%. Moreover, the “Hemp sesbania control, XR110015 Nozzle” value in the experiment on Hemp sesbania (Table 2) is 41%; in the experiment with Hemp sesbania (Table 6), 67%. For the same compound, the “Hemp sesbania control, DR 110015 Nozzle” value in the experiment with Hemp sesbania (Table 6, DR 110015 nozzle) was 50%. Also, the “Velvetleaf control, InJet 110015 Nozzle” value in the experiment with Velvetleaf (Table 1, InJet 110015 nozzle) amounted to 85%. Moreover, the “Velvetleaf control, XR110015 Nozzle” value with Velvetleaf (Table 1) is listed as 83%; with Velvetleaf (Table 5) it was 87%. In the experiment on Velvetleaf (Table 5, DR 110015 nozzle), the “Velvetleaf control, DR 110015 Nozzle” value amounted to 90%.

Values taken from patent US20060180677A1, “Agricultural compositions which enhance performance of pesticides applied through drift reducing nozzles” (priority 2005, published 2006).
